Assay results published in US11680047B2, “Enhanced erythropoiesis and iron metabolism” (FibroGen, Inc., priority 2003, dated 2023).

Tests used:
NRAMP2 = NRAMP2 mRNA in small intestine of mice after IV administration (microarray); assay type: in vivo, mouse; details: 60 mg/kg IV, 4 hours
Description: In another experiment, mRNA was isolated from small intestine harvested 4 hours following IV administration of 60 mg/kg compound A, compound B, and compound C to mice. Probes were prepared from each of two animals from 5 treatment groups, and hybridized to Affymetrix mouse MOE430Aplus2 microarrays (one animal per array). Statistical comparisons of data obtained from arrays from treated versus non-treated animals was performed. […] Expression levels are shown as fold-induction over control, untreated animals for each expressed gene.

EPO production [1] = test: Secreted EPO (ELISA) in Hep3B cells treated with TNF-α; assay type: cell-based; details: for effect on suppression of EPO production by TNF-α: 2-hour pre-treatment with TNF-α, EPO 3 days after compound addition; for effect on inhibition of EPO production by TNF-α: compound in the presence of TNF-α (0.4-10 ng/ml); for effect on inhibition of EPO production by TNF-α / EPO production: 3 days; for EPO production: various concentrations of compound, absence of TNF-α
Description: (§1) Hep3B cells were treated with various concentrations (0, 0.4, 2, 10 ng/ml) of TNF-α in the absence or presence of compound A or compound B for 3 days. Secreted EPO levels were determined using a commercially available ELISA kit (R&D Systems, catalog no. DEP00). In the absence of compound, treatment of Hep3B cells with TNF-α reduced EPO production in a dose-dependent manner. […] Therefore, inhibitory effects of the inflammatory cytokine TNF-α on EPO production were overcome by inhibition of prolyl hydroxylase activity using compounds and methods of the present invention. […] Further, the methods and compounds of the present invention are useful to increase EPO production and, therefore, to treat anemia in a subject, for example, wherein the subject has a disorder associated with TNF-αQ such as acute or chronic inflammation or other anemia of chronic disease.
(§2) A series of experiments were performed to examine the effects of compounds of the present invention on EPO production following exposure of cells to the inflammatory cytokine TNF-α (i.e., in cells already exposed to TNF-α). In these experiments, TNF-α signaling would therefore be initiated prior to the addition of a prolyl hydroxylase inhibitor. Hep3B cells were treated with various concentrations (0, 0.4, 2, 10 ng/ml) of TNF-α for 2 hours, after which various concentrations of compound A or compound B were added to the cultured cells. Secreted EPO levels were determined as described above 3 days following compound addition.

transferrin receptor [2] = test: Transferrin receptor expression by FACS (CD71-PE antibody) in Hep3B cells; assay type: cell-based; details: 1 day
Description: (§3) The effect of compounds of the invention on transferrin receptor expression was examined as follows. Various cells (Hep3B, HepG2, HK-2) were incubated with compound A or compound B for 1 day. The cells were then analyzed for transferrin receptor expression by FACS analysis using CD71-PE antibody (Ancell, catalog no. 223-050).

transferrin receptor [3] = test: Transferrin receptor expression by FACS (CD71-PE antibody) in HK-2 cells; assay type: cell-based; details: HK-2, 1 day
Description: as §3

transferrin receptor [4] = test: Transferrin receptor expression by FACS (CD71-PE antibody) in HepG2 cells; assay type: cell-based; details: HepG2, 1 day
Description: as §3

EPO production [5] = test: Secreted EPO (ELISA) in Hep3B cells treated with IL-1β; assay type: cell-based; details: for effect on suppression of EPO production by IL-1β: 2-hour pre-treatment with IL-1β, EPO 3 days after compound addition; for effect on inhibition of EPO production by IL-1β: compound in the presence of IL-1β (0.4-10 ng/ml); for effect on inhibition of EPO production by IL-1β / EPO production: 3 days; for EPO production: various concentrations of compound, absence of IL-1β
Description: as §1, with “IL-1β” for “TNF-α”, “IL-1β” for “TNF-αQ”
as §2, with “IL-1β” for “TNF-α”, “IL-1β).” for “TNF-α).”

EPO production [6] = test: Secreted EPO (ELISA) in Hep3B cells treated with IL-6; assay type: cell-based; details: for effect of compound treatment on EPO production in the presence of IL-6: compound plus IL-6
Description: Secreted EPO levels were determined using a commercially available ELISA kit (R&D Systems, catalog no. DEP00). […] As shown in FIGS. 27A and 27B, Hep3B cells treated with IL-6 increased EPO expression slightly above that in non-treated cells. Specifically, EPO levels in control cells was approximately 20 mIU/ml, while that in cells treated with 10 ng/ml IL-6 was approximately 50 mIU/ml.

E-selectin = test: Cell surface E-selectin (cell-based ELISA) in HUVEC pretreated with compound, then cytokines; design: species or system human; details: HUVEC pretreated 24 hours
Description: HUVEC were treated with vehicle control or various concentrations of compound B or compound C for 24 hours. Cells were washed and then stimulated with either 1 ng/ml TNF-α, 1 ng/ml IL-1β, or a combination of 1 ng/ml each of TNF-α, IL-1β, and IFN-γ for 4 hours. Cell surface expression of E-selectin was measured by cell-based ELISA.

[7] = 10 µM compound, absence of IL-6
[8] = compound in the presence of 10 ng/ml IL-6

SMILES: O=C(O)CNC(=O)c1nc(Cl)c2ccccc2c1O [Compound A, [(1-Chloro-4-hydroxy-isoquinoline-3-carbonyl)-amino]-acetic acid]
- NRAMP2 mRNA expression in small intestine (NRAMP2): increasing expression of NRAMP2 in intestine
- effect on suppression of EPO production by TNF-α (EPO production [1]): overcame the suppressive effects of TNF-α on EPO production
- effect on inhibition of EPO production by TNF-α (EPO production [1]): greatly reduced the inhibitory effects of TNF-α on EPO production
- EPO production (EPO production [1]): dose-dependent increase in EPO production
- Mean FL (transferrin receptor) (transferrin receptor [2]): 40.89
- Mean FL (transferrin receptor) (transferrin receptor [3]): 12.20
- Mean FL (transferrin receptor) (transferrin receptor [4]): 56.52
- effect on suppression of EPO production by IL-1β (EPO production [5]): overcame the suppressive effects of IL-1 on EPO production
- effect on inhibition of EPO production by IL-1β (EPO production [5]): greatly reduced the inhibitory effects of IL-1β on EPO production
- EPO production (EPO production [5]): dose-dependent increase in EPO production
- EPO levels (EPO production [6]; [7]): approximately 60 mIU/ml
- EPO levels (EPO production [6]; [8]): approximately 270 mIU/ml
- effect of compound treatment on EPO production in the presence of IL-6 (EPO production [6]): synergistic
- EPO levels (EPO production [6]; compound without IL-6): increased EPO levels in a dose-dependent manner

SMILES: O=C(O)CNC(=O)c1ncc2cc(Oc3ccccc3)ccc2c1O [Compound B, [(4-Hydroxy-7-phenoxy-isoquinoline-3-carbonyl)-amino]-acetic acid]
- NRAMP2 mRNA expression in small intestine (NRAMP2): increasing expression of NRAMP2 in intestine
- effect on suppression of EPO production by TNF-α (EPO production [1]): overcame the suppressive effects of TNF-α on EPO production
- effect on inhibition of EPO production by TNF-α (EPO production [1]): greatly reduced the inhibitory effects of TNF-α on EPO production
- EPO production (EPO production [1]): dose-dependent increase in EPO production
- Mean FL (transferrin receptor) (transferrin receptor [2]): 42.43
- Mean FL (transferrin receptor) (transferrin receptor [3]): 18.92
- Mean FL (transferrin receptor) (transferrin receptor [4]): 53.53
- effect on suppression of EPO production by IL-1β (EPO production [5]): overcame the suppressive effects of IL-1 on EPO production
- effect on inhibition of EPO production by IL-1β (EPO production [5]): greatly reduced the inhibitory effects of IL-1β on EPO production
- EPO production (EPO production [5]): dose-dependent increase in EPO production
- induction of cell surface E-selectin expression (E-selectin; then 1 ng/ml TNF-α or 1 ng/ml IL-1β for 4 hours): inhibited the induction of cell surface E-selectin expression
- cell surface E-selectin expression (E-selectin; then TNF-α, IL-1β and IFN-γ, 1 ng/ml each, 4 hours): decreased E-selectin expression
- EPO levels (EPO production [6]; [7]): ~220 mIU/ml
- EPO levels (EPO production [6]; [8]): greater than 400 mIU/ml
- effect of compound treatment on EPO production in the presence of IL-6 (EPO production [6]): synergistic
- EPO levels (EPO production [6]; compound without IL-6): increased EPO levels in a dose-dependent manner
